Measurements: patent publication US8329704B2, “Substituted pyrazinone derivatives for use in MCH-1 mediated diseases” (Janssen Pharmaceutica, N.V., priority 2005, dated 2012)

biological target: T1, human MCH-1 receptor (Homo sapiens, UniProt Q99705); assay: Ca2+ mobilization experiment for the MCH-1 receptor (FLIPR), inhibition of MCH-induced Ca2+ mobilization; type: cell-based; settings: CHO cells stably expressing human MCH-1 receptor, inhibition of MCH-induced Ca2+ response, read-out: MCH-1 pIC50 (converted)
T1 construct: expressed in transfected cells
T1 sequence (Q99705 whole entry): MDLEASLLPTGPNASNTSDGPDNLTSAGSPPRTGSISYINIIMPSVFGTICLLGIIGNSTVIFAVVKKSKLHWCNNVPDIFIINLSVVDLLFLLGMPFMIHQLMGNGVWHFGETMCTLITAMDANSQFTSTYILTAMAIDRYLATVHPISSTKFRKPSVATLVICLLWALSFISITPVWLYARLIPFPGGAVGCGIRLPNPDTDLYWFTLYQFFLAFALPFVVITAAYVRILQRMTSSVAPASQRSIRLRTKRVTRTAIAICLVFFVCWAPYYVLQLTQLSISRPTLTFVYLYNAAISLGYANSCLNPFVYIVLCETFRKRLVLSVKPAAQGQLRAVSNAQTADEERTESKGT
Description: The interaction of the compounds of Formula (I) with MCH-1 receptors was assessed in in vitro transient calcium (Ca^2+) mobilization assays in the fluorimetric imaging plate reader (FLIPR) format (Sullivan et al. 1999, Methods Mol Biol 114:125-133). In general, the natural agonist (MCH) is incubated with cells expressing the MCH-1 receptor, which elicits a concentration-dependent transient mobilization of Ca^2+ from internal stores. The interaction of the test compounds with the receptor is assessed in competition experiments. Various concentrations of the test compound are added to the incubation mixture containing the receptor-expressing cells and a submaximal concentration of MCH. The test compound in proportion to its antagonist potency and its concentration inhibits MCH-induced Ca^2+ mobilization.
Chinese Hamster ovary cells (CHO) stably expressing the human MCH-1 receptor are grown in a 1:1 mixture of Dulbecco's Modified Eagles Medium (DMEM) and HAM's F12 medium including Glutamax™ (Invitrogen), supplemented with 10% heat-inactivated fetal bovine serum and 400 μg/ml geneticin.
Twenty-four hours before the experiment, MCH-1 receptor-expressing CHO cells are seeded in 20 μl (5,000 cells per well) into 384-well black wall, clear bottom microtiter plates (Costar). On the day of the experiment, 20 μl per well calcium assay kit containing 10 mM probenicide (Molecular Devices) is added. Cells are loaded for 90 min at 37° C. and 5% CO2 in a cell culture incubator. After loading, 20 μl of serial dilutions of the test compound are added and cells are further incubated for 20 min at room temperature in the dark. After 20 min, 20 μl of a submaximal MCH concentration is added and changes in intracellular calcium are recorded directly in a FLIPR III apparatus (Molecular devices).
Data from assays in the presence of compound were calculated as a percentage of total Ca^2+-responses measured in the absence of test compound. Inhibition curves, plotting percent of total Ca^2+-responses versus the log value of the concentration of the test compound, were automatically generated, and sigmoidal inhibition curves were fitted using non-linear regression. The pIC50 values of test compounds were derived from individual curves.

| IC50 | SMILES |
| --- | --- |
| 100 nM | COc1cc(-n2ccnc(NCCc3ccccc3Cl)c2=O)ccc1OCCN1CCCC1 [2-22] |
| 50.1 nM | CN1CCN(c2ccc(-n3ccnc(NCCc4ccccc4)c3=O)cc2Cl)CC1 [3-78] |
| 200 nM | COc1cc(-n2ccnc(NCCOc3ccccc3)c2=O)ccc1OCCN(C)C(=O)CN(C)C [1-63] |
| 50.1 nM | COc1cc(-n2ccnc(NCCOc3ccccc3)c2=O)ccc1OCCCN1CCCCC1 [1-77] |
| 501 nM | CC(C)N(CCOc1ccc(-n2ccnc(NCCOc3ccccc3)c2=O)cc1)C(C)C [1-28] |
| 63.1 nM | CCCC(=O)NCCOc1ccc(-n2ccnc(NCCc3ccccc3)c2=O)cc1OC [3-39] |
| 316 nM | COc1cc(-n2ccnc(NCCc3ccccc3Br)c2=O)ccc1OCCN1CCCC1 [2-19] |
| 316 nM | CCCC(=O)N(C)CCOc1ccc(-n2ccnc(NCCOc3ccccc3)c2=O)cc1 [1-31] |
| 20 nM | CNC1CCN(c2ccc(-n3ccnc(NCCOc4ccccc4)c3=O)cc2OC)C1 (stereo not shown) [1-09] |
| 200 nM | COc1cc(-n2ccnc(NCCc3ccccc3)c2=O)ccc1NC1CCNC1 (stereo not shown) [3-24] |
| 15.8 nM | COc1cc(-n2ccnc(SCCc3ccccc3)c2=O)ccc1OC1CCN(C)C1 (stereo not shown) [6-15] |
| 39.8 nM | COc1cc(-n2ccnc(NCCOc3ccccc3)c2=O)ccc1/C=C/CN1CCOCC1 [1-18] |
| 31.6 nM | COc1cc(-n2ccnc(NCCc3ccccc3)c2=O)ccc1OCCN(C)C1CC1 [3-42] |
| 3160 nM | O=c1c(NCCOc2ccccc2)nccn1-c1ccc(OCCCN2CCCC2)cc1 [1-46] |
| 2000 nM | COc1cc(-n2ccnc(N3CCCC(c4ccc(F)cc4)C3)c2=O)ccc1OCCN1CCCC1 (stereo not shown) [4-03] |
| 79.4 nM | O=c1c(NCCc2ccccc2)nccn1-c1ccc2c(c1)OCC(CN1CCOCC1)=C2 [3-92] |
| 12.6 nM | COc1cc(-n2ccnc(NCCOc3ccccc3)c2=O)ccc1OCCN1CCC(F)CC1 [1-70] |
| 15.8 nM | CCCN1CCC(Oc2ccc(-n3ccnc(SCCc4ccccc4)c3=O)cc2OC)C1 (stereo not shown) [6-17] |
| 50.1 nM | COc1cc(-n2ccnc(NCCc3cccc(Cl)c3)c2=O)ccc1OCCN1CCCC1 [2-23] |
| 79.4 nM | COc1cc(-n2ccnc(NCCc3ccccc3)c2=O)ccc1N1CCC(N(C)C(C)=O)C1 (stereo not shown) [3-10] |
| 158 nM | COc1cc(-n2ccnc(NCCc3ccccc3)c2=O)ccc1OCCN1CC(C)OC(C)C1 (stereo not shown) [3-63] |
| 79.4 nM | COc1cc(-n2ccnc(NCCc3ccccc3)c2=O)ccc1OCCN1CCOC[C@H]1C [3-61] |
| 1260 nM | COc1cc(-n2ccnc(N3CCCC(c4ccccc4)C3)c2=O)ccc1OCCN1CCCC1 (stereo not shown) [4-01] |
| 31.6 nM | O=c1c(SCCc2ccccc2)nccn1-c1ccc(OCCN2CCCC2)cc1 [2-10] |
| 200 nM | COC(=O)c1cc(-n2ccnc(NCCOc3ccccc3)c2=O)ccc1OCCN1CCCC1 [1-54] |
| 79.4 nM | COc1cc(-n2ccnc(NCCOc3ccccc3)c2=O)ccc1N1CCC(N)CC1 [1-13] |
| 12.6 nM | COc1cc(-n2ccnc(SCCc3ccccc3)c2=O)ccc1N1CC[C@H](N(C)C)C1 [6-05] |

| IC50 | SMILES |
| --- | --- |
| 31.6 nM | COc1cc(-n2ccnc(NCCOc3ccccc3)c2=O)ccc1/C=C/CN1CCCC1 [1-17] |
| 50.1 nM | CCN(C)C1CCN(c2ccc(-n3ccnc(NCCc4ccccc4)c3=O)cc2OC)C1 (stereo not shown) [3-14] |
| 5.01 nM | COc1cc(-n2ccnc(NCCOc3ccccc3)c2=O)ccc1OCCN1CCC(F)CC1 [1-69] |
| 25.1 nM | COc1cc(-n2ccnc(NCCc3ccccc3)c2=O)ccc1OCCNC1CC1 [3-41] |
| 316 nM | O=c1c(NCCOc2ccccc2)nccn1-c1ccc(OCCN2CCC(O)C2)cc1 (stereo not shown) [1-36] |
| 126 nM | COc1cc(-n2ccnc(NCCc3ccccc3)c2=O)ccc1OCCCNC(C)=O [3-66] |
| 126 nM | COc1cc(-n2ccnc(NCCc3ccccc3)c2=O)ccc1N1CCC(N2CCC(O)C2)C1 (stereo not shown) [3-20] |
| 63.1 nM | COc1cc(-n2ccnc(NCCc3ccccc3)c2=O)ccc1OCCN1CCOC[C@@H]1C [3-60] |
| 20 nM | COc1cc(-n2ccnc(NCCc3ccccc3)c2=O)ccc1OCCN1CCC(C(=O)NC2CC2)CC1 [3-54] |
| 398 nM | O=c1c(NCCOc2ccccc2)nccn1-c1ccc2c(cnn2CCN2CCCC2)c1 [3-85] |
| 39.8 nM | COc1cc(-n2ccnc(NCCc3ccccc3)c2=O)ccc1OCCN1CCCC(C(N)=O)C1 (stereo not shown) [3-52] |
| 126 nM | COc1cc(-n2ccnc(NCCOc3ccccc3)c2=O)ccc1OCCCN1CCC(O)C1 (stereo not shown) [1-76] |
| 25.1 nM | COc1cc(-n2ccnc(NCCCOc3cccc(Cl)c3)c2=O)ccc1OCCN1CCCC1 [2-31] |
| 126 nM | COc1cc(-n2ccnc(NCCc3ccccc3)c2=O)ccc1OCCCNC(=O)C1CC1 [3-69] |
| 50.1 nM | COc1cc(-n2ccnc(NCCOc3ccccc3)c2=O)ccc1OCCN1CCCC(CO)C1 (stereo not shown) [1-72] |
| 100 nM | COc1cc(-n2ccnc(NCCOc3ccccc3)c2=O)ccc1N1CCC(NC(=O)C(C)C)CC1 [1-15] |
| 200 nM | O=c1c(NCCOc2ccccc2)nccn1-c1ccc(OCCN2CCC3(CC2)OCCO3)cc1 [1-43] |
| 63.1 nM | CNC1CCN(c2ccc(-n3ccnc(NCCc4ccccc4)c3=O)cc2OC)C1 (stereo not shown) [3-12] |
| 39.8 nM | COc1cc(-n2ccnc(NCCc3ccccc3)c2=O)ccc1N1CCN(C)CC1 [3-11] |
| 50.1 nM | COc1cc(-n2ccnc(NCCc3ccccc3)c2=O)ccc1OCCN1CCOCC1 [3-59] |
| 31.6 nM | C=CCc1cc(-n2ccnc(NCCOc3ccccc3)c2=O)ccc1OCCN1CCCC1 [1-49] |
| 50.1 nM | COc1cc(-n2ccnc(NCCc3ccccc3)c2=O)ccc1OCCN1CCC2(CC1)OCCO2 [3-58] |
| 158 nM | CCCN(C)CCOc1ccc(-n2ccnc(NCCOc3ccccc3)c2=O)cc1 [1-24] |
| 1000 nM | NC(=O)c1cc(-n2ccnc(NCCOc3ccccc3)c2=O)ccc1OCCN1CCCC1 [1-55] |
| 39.8 nM | COc1cc(-n2ccnc(NCCc3ccccc3)c2=O)ccc1OCCN1CCC(F)(F)CC1 [3-56] |
| 63.1 nM | COc1cc(-n2ccnc(NCCOc3ccccc3)c2=O)ccc1OC1CNC1 [1-57] |
| 63.1 nM | O=c1c(NCCc2ccccc2)nccn1-c1ccc(N2CCN(CCO)CC2)c(Cl)c1 [3-79] |

| IC50 | SMILES |
| --- | --- |
| 1580 nM | CN(C(=O)OC(C)(C)C)C1CCN(c2ccc(-n3ccnc(NCCOc4ccccc4)c3=O)cc2)C1 (stereo not shown) [1-04] |
| 794 nM | CN(CCOc1ccc(-n2ccnc(NCCOc3ccccc3)c2=O)cc1)CCc1ccccc1 [1-32] |
| > 10000 nM | CN(C1CCN(c2ccc(-n3ccnc(NCCOc4ccccc4)c3=O)cc2)C1)S(C)(=O)=O (stereo not shown) [1-05] |
| 15.8 nM | COc1cc(-n2ccnc(SCCc3ccccc3)c2=O)ccc1N1CC[C@@H](N(C)C)C1 [6-06] |
| 7940 nM | O=c1c(NCCOc2ccccc2)nccn1-c1ccc(OCCN2CCCC2)c(Cl)c1 [1-56] |
| 200 nM | COc1cc(-n2ccnc(NCCc3ccc(Cl)cc3Cl)c2=O)ccc1OCCN1CCCC1 [2-39] |
| 2000 nM | COc1cc(-n2ccnc(N3CCC(c4cccc(C(F)(F)F)c4)C3)c2=O)ccc1OCCN1CCCC1 (stereo not shown) [4-05] |
| 25.1 nM | COc1cc(-n2ccnc(NCCc3ccc(Cl)cc3)c2=O)ccc1OCCN1CCCC1 [2-24] |
| 200 nM | COc1cc(-n2ccnc(NCCc3ccccc3)c2=O)ccc1OCCNC(=O)c1ccncc1 [3-44] |
| 12.6 nM | CN[C@@H]1CCN(c2ccc(-n3ccnc(SCCc4ccccc4)c3=O)cc2OC)C1 [6-03] |
| 158 nM | COC(=O)C1CCN(CCOc2ccc(-n3ccnc(NCCOc4ccccc4)c3=O)cc2)CC1 [1-42] |
| 31.6 nM | COc1cc(-n2ccnc(NCCCOc3ccccc3)c2=O)ccc1OCCN(C)C(C)=O [7-03] |
| 63.1 nM | COc1cc(-n2ccnc(NCCOc3ccccc3)c2=O)ccc1OCCNC1CC1 [1-59] |
| 251 nM | COc1cc(-n2ccnc(NCCOc3ccccc3)c2=O)ccc1OCCN(C)C(=O)c1ccccc1 [1-66] |
| 251 nM | COc1ccc(CCNc2nccn(-c3ccc(OCCN4CCCC4)c(OC)c3)c2=O)cc1Cl [2-42] |
| 39.8 nM | O=c1c(NCCc2ccccc2)nccn1CCc1ccc(CN2CCOCC2)cc1 [9-02] |
| 126 nM | COc1cc(-n2ccnc(CCCc3ccccc3)c2=O)ccc1OCCN1CCCC1 [2-01] |
| 1580 nM | O=c1c(NCCOc2ccccc2)nccn1-c1ccc(OCCN2CCCCC2)cc1 [1-38] |
| 100 nM | COc1cc(-n2ccnc(SCCc3ccccc3)c2=O)ccc1OC1CCNC1 (stereo not shown) [6-14] |
| 39.8 nM | COc1cc(-n2ccnc(NCCc3ccccc3)c2=O)ccc1OCCN1C(C)COCC1C (stereo not shown) [3-62] |
| 794 nM | CC(=O)N(C)C1CCN(c2ccc(-n3ccnc(NCCOc4ccccc4)c3=O)cn2)C1 (stereo not shown) [3-88] |
| 79.4 nM | COc1cc(-n2ccnc(OCCc3ccccc3)c2=O)ccc1OCCN1CCCC1 [2-06] |
| 79.4 nM | COc1cc(-n2ccnc(NCCc3ccccc3)c2=O)ccc1OC1CCN(C)C1 (stereo not shown) [3-32] |
| 39.8 nM | CCCN1CCC(Nc2ccc(-n3ccnc(NCCc4ccccc4)c3=O)cc2OC)C1 (stereo not shown) [3-26] |
| 126 nM | COc1cc(-n2ccnc(NCCc3ccccc3)c2=O)ccc1NCCN1CCCC1 [3-28] |
